Measurements as given in patent US20260216101A1, “Selective Serotonin Receptor Modulators and Methods of Making and Using the Same” (Park City Bio, LLC, priority 2024, published 2026).

Legend:
5-HT2C receptor = target: T1, 5-HT2C receptor (Homo sapiens, UniProt P28335); test: 5-HT2 receptor-mediated Gq activation via Gq/γ1 dissociation BRET (5-HT2C); format: cell-based; settings: primary 5-HT2C signaling via Gq-coupled mechanism compared to β-arrestin
T1 construct: expressed in transfected cells; host or cells: HEK293T
T1 sequence (P28335 33-458): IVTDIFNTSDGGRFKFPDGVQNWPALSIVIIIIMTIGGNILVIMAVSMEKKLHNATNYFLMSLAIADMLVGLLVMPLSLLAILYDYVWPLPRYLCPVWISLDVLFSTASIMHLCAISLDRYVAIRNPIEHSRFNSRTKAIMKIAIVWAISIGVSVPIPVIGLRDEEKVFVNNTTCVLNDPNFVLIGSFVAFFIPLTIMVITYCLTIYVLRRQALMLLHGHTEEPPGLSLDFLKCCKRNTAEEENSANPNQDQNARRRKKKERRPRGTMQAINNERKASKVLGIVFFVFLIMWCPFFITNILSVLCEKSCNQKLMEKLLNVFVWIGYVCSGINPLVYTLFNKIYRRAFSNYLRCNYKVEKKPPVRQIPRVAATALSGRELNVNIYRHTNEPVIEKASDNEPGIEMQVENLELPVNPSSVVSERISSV
Excerpt: (§1) To measure 5-HT2 receptor-mediated Gq activation via Gq/y1 dissociation as measured by Bioluminescence Resonance Energy Transfer (BRET) (McCorvy J D, Wacker D, Wang S, Agegnehu B, Liu J, Lansu K, Tribo A R, Olsen R H J, Che T, Jin J, Roth B L. Structural determinants of 5-HT2B receptor activation and biased agonism. Nat Struct Mol Biol. 2018; 25(9): 787-96), HEK293T cells were sub-cultured in Dulbecco's Modified Eagle Medium (DMEM) supplemented with 10% dialyzed fetal bovine serum (FBS) and were co-transfected in a 1:1:1:1 ratio with Rluc8-fused human Gaq (Gaq-Rluc8), a GFP2-fused to the C-terminus of human Gy1(Gy1-GFP2), human G131, and 5-HT2 receptor using TransiT-2020. After at least 18-24 hours, transfected cells were plated in poly-lysine coated 96-well white clear bottom cell culture plates in DMEM containing 1% dialyzed FBS at a density of 25,000-40,000 cells in 200 μL per well and incubated overnight. The following day, medium was decanted, and cells were washed with 60 μL of drug buffer (1×HBSS, 20 mM HEPES, pH 7.4), then 60 μL of drug buffer was added per well. Cells were pre-incubated at in a humidified atmosphere at 37° C. before receiving drug stimulation. […] Substrate addition occurred 15 minutes before reading and utilized 10 μL of the Rluc substrate coelenterazine 400a for Gq dissociation BRET^2 (Prolume/Nanolight, 5 μM final concentration). Plates were read for luminescence at 400 nm and fluorescent GFP2 emission at 510 nm at 1 second per well using a Mithras LB940 multimode microplate reader (e.g. one provided by Berthold). The BRET ratios of fluorescence/luminescence were calculated per well and were plotted as a function of drug concentration using Graphpad Prism 8 (Graphpad Software Inc., San Diego, CA). Data were normalized to % 5-HT stimulation and analyzed using nonlinear regression “log(agonist) vs. response” to yield Emax and EC50 parameter estimates. […]

5-HT2A receptor = target: T2, 5-HT2A receptor (Homo sapiens, UniProt P28223); test: 5-HT2 receptor-mediated Gq activation via Gq/γ1 dissociation BRET (5-HT2A); format: cell-based; settings: predicted based on the level of 5-HT2A agonist efficacy
T2 construct: expressed in transfected cells; host or cells: HEK293T
Excerpt: as §1

T2 sequence (P28223 whole entry): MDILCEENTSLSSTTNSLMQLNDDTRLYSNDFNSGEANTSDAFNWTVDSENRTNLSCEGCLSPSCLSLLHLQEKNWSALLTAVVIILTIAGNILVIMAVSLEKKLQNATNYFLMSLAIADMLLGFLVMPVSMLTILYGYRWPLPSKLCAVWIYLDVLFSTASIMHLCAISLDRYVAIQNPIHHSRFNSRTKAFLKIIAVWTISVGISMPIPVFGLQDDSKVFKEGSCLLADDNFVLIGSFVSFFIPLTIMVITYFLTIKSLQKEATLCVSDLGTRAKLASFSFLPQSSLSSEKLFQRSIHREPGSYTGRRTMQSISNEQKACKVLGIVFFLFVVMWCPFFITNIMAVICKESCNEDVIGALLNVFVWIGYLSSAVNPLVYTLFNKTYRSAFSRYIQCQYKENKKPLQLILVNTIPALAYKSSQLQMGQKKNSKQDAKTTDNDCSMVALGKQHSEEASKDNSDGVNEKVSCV

Structure (SMILES)	5-HT2C Gq signaling bias? (5-HT2C receptor)	Hall or N-Hall? (hallucinogenic or non-hallucinogenic plastogenic effect) (5-HT2A receptor)
CNC[C@H]1C[C@@H]1c1cc(F)ccc1OC	Yes	N-Hall
CNCC1CC1c1cc(F)ccc1SC (stereo not drawn)	Yes	N-Hall
CSc1ccc(F)cc1C1CC1CN(C)C (stereo not drawn)	Yes	N-Hall
